Measurements: patent US20250249001A1, “METHODS OF TREATING SUBSTANCE USE DISORDER WITH 4-(3-CYANOPHENYL)-6-PYRIDINYLPYRIMIDINE MGLU5 NEGATIVE ALLOSTERIC MODULATORS” (Tempero Bio, Inc., priority 2022, published 2025)

Assays:
[1] = tested on: operant alcohol self-administration in Wistar rats; test: Operant alcohol self-administration (FR-1), acute treatment; format: in vivo; parameters: alcohol reinforced lever press responses: dose or concentration left out as unconfirmed; settings: 1-h pretreatment
Excerpt: Twelve operant conditioning chambers designed for rats (30.5 cm×24.1 cm×21.0 cm; Med Associates, Georgia, VT) were located within sound-attenuating cubicles in a devoted room to limit extraneous potential impact by extraneous environmental variables. Each cubicle was equipped with an exhaust fan that provided ventilation and masked external sounds. The chambers were electronically interfaced to a Microsoft Windows based computer that was programmed using investigator developed software to control sessions and record number of lever press responses at 100-ms intervals.
The right wall of each chamber contained a liquid receptacle and a response lever (Med Associates) that was termed the active lever. Lever press responses on the active lever activated a syringe pump (PHM-100, Med Associates) that delivered 0.1 ml of alcohol solution (ethanol 8% v/v+sucrose 2% w/v) into the receptacle over a 1.66-s period. Head entries into the liquid receptacle were recorded when an infrared photo beam was broken. A stimulus light located above the response lever was illuminated during pump activation. Lever presses during reinforcer delivery were recorded but produced no programmed consequence. […] Behavior on this lever serves as a control for motor disruptions and other nonspecific effects of test compounds. […]
Testing the efficacy of Compound 1 to reduce the reinforcing, or rewarding, effects of alcohol. Following establishment of stable baseline self-administration behavior, effects of pre-session treatment with the novel mGluR5 negative allosteric modulator Compound 1 (0, 0.3, 1, 3, and 10 mg/kg, IP) were evaluated on operant alcohol self-administration behavior (n=12 rats). […] Parameters of operant performance were measured, including total lever press responses, number of headpokes into the liquid receptacle, and rate of operant responding, which is a direct measure of positive reinforcement function. […]

[2] = tested on: voluntary home-cage alcohol drinking by Wistar rats; test: Home-cage two-bottle choice alcohol drinking, acute treatment; format: in vivo
Method: Animals: Male Wistar rats (Charles River Laboratories, INC) were used in these studies. Rat housing and testing was conducted at the University of North Carolina at Chapel Hill (UNC-CH) School of Medicine in a state-of-the-art rodent vivarium approved by the Association for Assessment and Accreditation of Laboratory Animal Care International (AAALAC). Rat health was monitored daily by study investigators and veterinarians in the Division of Comparative Medicine UNC. All experimental procedures were carried out in accordance with the NIH Guide to Care and Use of Laboratory Animals (Committee for the Update of the Guide for the Care and Use of Laboratory Animals, 2011) and institutional guidelines.
Rats were housed individually in standard Plexiglas cages with standard rodent food and water available ad libitum. Upon arrival from the vendor, rats were given 7 days to acclimate to the vivarium during which they were weighed and handled by an investigator each day to monitor general health and habituate them to human contact. Rats were then weighed each day within 1-h of experimental procedures to calculate drug dosages relative to body weight. […] The colony was maintained at […] on a 12-hour light/dark cycle, with the lights on from 10 AM-10 PM. All behavioral experiments were conducted during the light portion of the light cycle.
Home-cage alcohol drinking method. Oral alcohol and water intake were examined using a two-bottle choice protocol, which is standard in the field and commonly used in our laboratory. Male Wistar rats (n=12) were first adapted to drinking from a 50 ml conical tube fitted with a standard stainless-steel ball bearing sipper tube that limits spillage. Then, two bottles were place on the cage daily. One bottle contained an alcohol solution and the other contained water. Bottles containing fresh solutions were weighed daily before and after a 24 hr access period. After drug treatment, bottles were weighed after 1 hr and 24 hrs of access. Each week, rats had 4-5 days of sweetened alcohol and water available and the remaining days only water.
Briefly, rats were first exposed to alcohol (10% v/v)+sucrose (5% w/v). versus water in the two bottles. Then, over a period of 6-weeks, the concentrations of alcohol and sucrose were gradually adjusted to alcohol (8% v/v)+sucrose (2% w/v) to achieve intake of pharmacologically relevant doses of alcohol. Rats were maintained at this concentration for the duration of the experiment for both acute (3.1.a) and chronic (3.1.b) home-cage drinking studies. Use of sweetened alcohol solutions in preclinical research provides face validity to the binge-intoxication stage of alcohol addiction in humans where sweeteners are commonly added to alcohol.
Compound 1 treatment. After establishing baseline intake of sweetened alcohol and water, rats were habituated to i.p. injections. All rats (N=12) were administered 3 habituation injections of vehicle (10% w/v kolliphor in BCD (10%)) prior to the Compound 1 dose response curve and alcohol intake was measured. Then, the Compound 1 dose response curve was conducted with dose order randomized according to a modified Latin-Square design. Rats were given a minimum of 1-2 days between injections to ensure normal drinking was re-established in absence of drug administration. Each dose of Compound 1 (0-10 mg/kg) was administered via i.p. injection and rats were placed back in the home-cage for 1 hr prior to the return of sweetened alcohol and water. Alcohol intake was measured after 1-h and 24-hrs of access in grams by weighing the drinking bottles. Data were excluded from 1 rat that emptied both bottles fully each day without drinking the solutions; thus, results are presented for a final group of N=11 rats.
Efficacy comparisons to MPEP and Naltrexone. […]

## N#Cc1cc(Cl)cc(-c2cc(-c3ccc(F)cn3)ncn2)c1 [Compound 1, 3-chloro-5-[6-(5-fluoropyridin-2-yl)pyrimidin-4-yl]benzonitrile]
[1]; 10 mg/kg IP
  EtOH reinforced responses vs vehicle, multiple comparisons: reduced EtOH reinforced responses
[1]; IP (so in the source), 15-min test sessions
  alcohol reinforced lever press responses: reduced alcohol reinforced lever press responses in a dose-dependent manner
[2]; 10 mg/kg i.p. acute
  alcohol intake after 24-hrs of access vs vehicle: did not achieve statistical significance
[2]; 1-hr access, dose range 0-10 mg/kg i.p.
  dosage giving the greatest reduction in EtOH intake: 3 mg/kg
[2]; Compound 1 1, 3, and 10 mg/kg i.p. acute, 1 hr before access, sweetened alcohol, N=11
  alcohol intake (EtOH g/kg/1-h) after 1-hr access vs vehicle control: significantly decreased alcohol intake
[2]; Compound 1 1 and 3 mg/kg i.p. acute
  alcohol intake after 24-hrs of access vs vehicle: significantly decreased alcohol intake
[2]; each drug 3 mg/kg i.p. acute
  alcohol intake at the 24-hr measurement interval, comparison of equivalent doses: maintained efficacy
[2]; each drug 3 mg/kg i.p. acute, N=11
  alcohol drinking at 1-hr of access vs vehicle control, positive control comparison: significantly decreased alcohol drinking
